Data taken from ChEMBL document CHEMBL1201862, “PubChem BioAssay data set” (2004).
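Exposure lasted 48 hours, with cells grown in 96-well plates and compounds tested at five concentrations. At the GI50, growth is halved.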 Calls of active or inactive are those of the source. Rule as the data show it: active = GI50 up to about 1.1 µM and inactive = higher.

Legend:
Experiment in all cases: inhibition of tumour cell growth, NCI panel, 48 h
SK-MEL-28 = system: SK-MEL-28
MDA-N = system: MDA-N
DU-145 = system: DU-145
KM12 = system: KM12
U-251 = system: U-251
ACHN = system: ACHN
HT-29 = system: HT-29
MDA-MB-435 = system: MDA-MB-435
SN12C = system: SN12C
COLO 205 = system: COLO 205
A498 = system: A498
NCI-H226 = system: NCI-H226
786-0 = system: 786-0
MDA-MB-231 = system: MDA-MB-231
OVCAR-4 = system: OVCAR-4
Hs-578T = system: Hs-578T
UACC-62 = system: UACC-62
SF-268 = system: SF-268
SR = system: SR

Measured: GI50

Oc1nc2c(c(-c3ccc(Br)cc3)n1)COC/C2=C\c1ccc(Br)cc1
inactive: SK-MEL-28 > 50 µM | MDA-N > 50 µM | DU-145 > 50 µM | KM12 > 50 µM | U-251 > 50 µM | ACHN > 50 µM | HT-29 > 50 µM | MDA-MB-435 29.4 µM | SN12C > 50 µM | COLO 205 > 50 µM | A498 > 50 µM | NCI-H226 > 50 µM | 786-0 > 50 µM | MDA-MB-231 > 50 µM | OVCAR-4 > 50 µM | Hs-578T > 50 µM | UACC-62 > 50 µM | SF-268 > 50 µM

Cc1nn(C(=O)c2ccc(Cl)cc2)c2c1C(c1ccc(O)cc1)SC(=N)N2 (configuration not stated)
inactive: SK-MEL-28 > 10 µM | MDA-N > 10 µM | DU-145 > 10 µM | KM12 > 10 µM | U-251 > 10 µM | ACHN > 10 µM | HT-29 > 10 µM | MDA-MB-435 > 10 µM | SN12C > 10 µM | COLO 205 > 10 µM | NCI-H226 > 10 µM | SR > 10 µM | 786-0 > 10 µM | MDA-MB-231 > 10 µM | OVCAR-4 > 10 µM | Hs-578T > 10 µM | UACC-62 > 10 µM | SF-268 > 10 µM

OC1(c2ccc(Cl)cc2)c2ccc(CN3CCCC3)cc2C2=NCCN21 (configuration not stated)
inactive: SK-MEL-28 10.7 µM | MDA-N 10.8 µM | DU-145 16 µM | KM12 12.8 µM | U-251 14 µM | ACHN 16.7 µM | HT-29 13.1 µM | MDA-MB-435 10.5 µM | SN12C 16.4 µM | COLO 205 10.8 µM | A498 13.1 µM | SR 10.4 µM | 786-0 15.2 µM | MDA-MB-231 13.9 µM | OVCAR-4 12.3 µM | Hs-578T 12.3 µM | UACC-62 14.7 µM | SF-268 14.8 µM

CC(C)=CCC[C@]1(C)CC[C@]2(C)C3CCC(=C(C)C)[C@@H](CCCO)[C@]3(C)CC[C@@]2(C)C1 (some centres not stated)
inactive: SK-MEL-28 > 100 µM | MDA-N 89.3 µM | DU-145 34 µM | KM12 57.9 µM | U-251 23.6 µM | ACHN 83 µM | HT-29 40.2 µM | MDA-MB-435 > 100 µM | SN12C 54.5 µM | COLO 205 > 100 µM | A498 > 100 µM | NCI-H226 > 100 µM | 786-0 32.4 µM | MDA-MB-231 29.8 µM | OVCAR-4 > 100 µM | Hs-578T > 100 µM | UACC-62 > 100 µM | SF-268 82 µM

CC(=O)OC12c3ccccc3C(c3ccccc31)C1C(=O)N(Nc3ccccc3)C(=O)C12 (configuration not stated)
inactive: SK-MEL-28 > 100 µM | MDA-N > 100 µM | DU-145 > 100 µM | KM12 > 100 µM | U-251 > 100 µM | ACHN > 100 µM | HT-29 > 100 µM | SN12C > 100 µM | COLO 205 > 100 µM | A498 > 100 µM | NCI-H226 > 100 µM | SR > 100 µM | 786-0 > 100 µM | MDA-MB-231 > 100 µM | OVCAR-4 > 100 µM | Hs-578T 23.1 µM | UACC-62 > 10 µM | SF-268 > 100 µM

Nc1ccc(S(=O)(=O)Nc2nc3ccccc3nc2N2CCCCC2)cc1
inactive: SK-MEL-28 92.9 µM | MDA-N > 100 µM | DU-145 > 100 µM | KM12 70.1 µM | U-251 68.2 µM | ACHN 98.6 µM | HT-29 > 100 µM | MDA-MB-435 > 100 µM | SN12C 82 µM | COLO 205 64.9 µM | NCI-H226 > 100 µM | SR 60.5 µM | 786-0 > 100 µM | MDA-MB-231 > 100 µM | OVCAR-4 24.2 µM | Hs-578T > 100 µM | UACC-62 > 100 µM | SF-268 > 100 µM

N#Cc1nc(CCN2C(=O)c3ccccc3C2=O)oc1N
inactive: SK-MEL-28 > 100 µM | MDA-N > 100 µM | DU-145 > 100 µM | KM12 4.45 µM | U-251 > 100 µM | ACHN > 100 µM | HT-29 > 100 µM | MDA-MB-435 > 100 µM | SN12C > 100 µM | COLO 205 > 100 µM | NCI-H226 > 100 µM | SR > 100 µM | 786-0 > 100 µM | MDA-MB-231 > 100 µM | OVCAR-4 > 100 µM | Hs-578T > 100 µM | SF-268 > 100 µM

CC(C)C1OC23CCCCC2C(C#N)(C#N)C1(C#N)C(=N)O3 (configuration not stated)
inactive: SK-MEL-28 27.4 µM | MDA-N 15.8 µM | DU-145 26.3 µM | KM12 > 10 µM | U-251 17.4 µM | ACHN 33.1 µM | HT-29 14.5 µM | MDA-MB-435 23.7 µM | SN12C 15.2 µM | COLO 205 14.6 µM | A498 25.3 µM | NCI-H226 98.6 µM | 786-0 14.2 µM | MDA-MB-231 19.6 µM | Hs-578T 16.4 µM | UACC-62 20.6 µM | SF-268 19.2 µM

O=c1ccc2c(Cl)sc(Cl)c2[nH]1
inactive: SK-MEL-28 > 100 µM | MDA-N > 100 µM | DU-145 > 100 µM | KM12 > 100 µM | U-251 > 100 µM | ACHN > 100 µM | HT-29 > 100 µM | MDA-MB-435 > 100 µM | SN12C > 100 µM | 786-0 > 100 µM | MDA-MB-231 > 100 µM | OVCAR-4 > 100 µM | Hs-578T 35.2 µM | UACC-62 > 100 µM | SF-268 > 100 µM

O=C(CCN1CCCC1)c1ccc(Oc2ccc(F)cc2)cc1
inactive: SK-MEL-28 > 100 µM | MDA-N 58.3 µM | DU-145 53.5 µM | KM12 29.9 µM | U-251 > 100 µM | ACHN > 100 µM | HT-29 32.5 µM | MDA-MB-435 > 100 µM | SN12C 97.1 µM | COLO 205 23 µM | NCI-H226 > 100 µM | 786-0 16.6 µM | MDA-MB-231 > 100 µM | OVCAR-4 > 100 µM | Hs-578T 30.1 µM | UACC-62 54.2 µM | SF-268 87.3 µM

O=C(O)CNc1ccc(Cl)c(Cl)c1
inactive: MDA-N 23.7 µM | DU-145 29.4 µM | KM12 19.1 µM | U-251 31.1 µM | ACHN 20 µM | HT-29 40.6 µM | MDA-MB-435 26.3 µM | SN12C 32.7 µM | COLO 205 18.5 µM | A498 30.4 µM | NCI-H226 27.5 µM | 786-0 24.7 µM | MDA-MB-231 45.3 µM | OVCAR-4 31.6 µM | Hs-578T 33.6 µM | UACC-62 28.1 µM | SF-268 28.9 µM

CCOC(=O)[C@H](Cc1ccc(O)cc1)/N=C1/[C@H]2CCC[C@]1(O)[C@@](C)([N+](=O)[O-])C2
inactive: SK-MEL-28 > 100 µM | MDA-N > 100 µM | DU-145 > 100 µM | KM12 > 100 µM | U-251 > 100 µM | ACHN > 100 µM | HT-29 > 100 µM | MDA-MB-435 > 100 µM | SN12C > 100 µM | COLO 205 > 100 µM | A498 > 100 µM | NCI-H226 > 100 µM | SR > 100 µM | 786-0 > 100 µM | OVCAR-4 > 100 µM | Hs-578T > 100 µM | UACC-62 > 100 µM

C=C(CCC=C(C)C)C1CC=C(C)CC1 (configuration not stated)
inactive: MDA-N 18.5 µM | DU-145 23.2 µM | KM12 19 µM | U-251 18 µM | ACHN 17.8 µM | MDA-MB-435 18.2 µM | SN12C 19.7 µM | COLO 205 26.4 µM | A498 > 100 µM | NCI-H226 > 100 µM | 786-0 17.1 µM | MDA-MB-231 30.6 µM | Hs-578T 20.9 µM | UACC-62 36.9 µM | SF-268 28.8 µM

COc1cc2c(cc1OC)C13CCN4CC5=CCOC6CC(=O)N2C1C6C5CC43O (configuration not stated)
inactive: SK-MEL-28 > 100 µM | MDA-N > 100 µM | DU-145 > 100 µM | KM12 > 100 µM | U-251 > 100 µM | ACHN > 100 µM | HT-29 > 100 µM | MDA-MB-435 > 100 µM | SN12C > 100 µM | COLO 205 > 100 µM | A498 > 100 µM | NCI-H226 > 100 µM | 786-0 > 100 µM | MDA-MB-231 > 100 µM | OVCAR-4 > 100 µM | Hs-578T > 100 µM | UACC-62 > 100 µM | SF-268 > 100 µM

CC(C)(C)NC1=NC(C(F)(F)F)(C(F)(F)F)NC(=O)N1
inactive: SK-MEL-28 32.7 µM | MDA-N 49.2 µM | DU-145 > 100 µM | KM12 68.4 µM | U-251 70.3 µM | ACHN 39.7 µM | HT-29 36.9 µM | MDA-MB-435 37.1 µM | SN12C 54.7 µM | COLO 205 > 10 µM | NCI-H226 > 100 µM | SR 37 µM | 786-0 52.4 µM | MDA-MB-231 77.1 µM | OVCAR-4 36.3 µM | Hs-578T 58.2 µM | UACC-62 54.6 µM | SF-268 > 100 µM

CC(C)OC(=O)Nc1cccc(Cl)c1 [CHLORPROPHAM]
inactive: SK-MEL-28 > 100 µM | MDA-N > 100 µM | DU-145 > 100 µM | KM12 70.1 µM | U-251 87.1 µM | ACHN > 100 µM | HT-29 87.7 µM | MDA-MB-435 > 100 µM | SN12C > 100 µM | COLO 205 > 100 µM | NCI-H226 > 100 µM | SR > 100 µM | 786-0 > 100 µM | MDA-MB-231 > 100 µM | OVCAR-4 > 100 µM | Hs-578T > 100 µM | UACC-62 > 100 µM | SF-268 > 100 µM
